Results taken from paper PMC5967236 (Angewandte Chemie (International ed. in English), 2017).

Assays:
[1] = tested on: IKZF family of linage specific transcription factors; settings: cited from earlier work
[2] = tested on: all cellular proteins in MOLM-13 cells; test: whole-cell lysate proteomics; format: cell-based, human; settings: 100 nM for 2 hours
[3] = tested on: human AML lines (EOL-1, MOLM-13, MV4;11); test: viability of human AML lines, 7 days; format: cell-based
BRD7 = molecular target: T1, BRD7 (Homo sapiens, UniProt Q9NPI1); test: BRD7 immunoblot in MOLM-13 cells; settings: MOLM-13, 4hr, western blot
T1 sequence (Q9NPI1 1-651): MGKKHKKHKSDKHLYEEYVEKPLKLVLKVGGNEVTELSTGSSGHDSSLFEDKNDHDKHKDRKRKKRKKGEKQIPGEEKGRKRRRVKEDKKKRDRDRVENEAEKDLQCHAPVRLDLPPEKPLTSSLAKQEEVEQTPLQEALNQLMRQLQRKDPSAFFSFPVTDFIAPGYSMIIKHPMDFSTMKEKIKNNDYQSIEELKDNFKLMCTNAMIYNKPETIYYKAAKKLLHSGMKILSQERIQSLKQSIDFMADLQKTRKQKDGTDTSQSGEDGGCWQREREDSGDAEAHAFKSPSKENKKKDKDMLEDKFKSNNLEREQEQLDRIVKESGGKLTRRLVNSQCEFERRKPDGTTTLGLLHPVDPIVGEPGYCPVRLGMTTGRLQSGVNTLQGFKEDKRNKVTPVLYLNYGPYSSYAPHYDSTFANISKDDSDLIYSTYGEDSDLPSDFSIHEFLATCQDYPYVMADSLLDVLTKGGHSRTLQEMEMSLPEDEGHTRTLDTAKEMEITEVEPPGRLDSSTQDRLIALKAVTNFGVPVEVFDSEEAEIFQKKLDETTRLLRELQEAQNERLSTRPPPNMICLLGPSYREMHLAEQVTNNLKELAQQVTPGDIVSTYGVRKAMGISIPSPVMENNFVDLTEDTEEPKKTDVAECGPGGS

BRD4 = BRD4 (Homo sapiens, UniProt O60885); test: BRD4 immunoblot in MOLM-13 cells; settings: MOLM-13, 4hr, western blot
MOLM-13 = test: viability of MOLM-13; format: cell-based, human; settings: MOLM-13 transduced with wild type BRD9
[4] = tested on: IKZF family of linage specific transcription factors; test: activity against IKZF family transcription factors; format: cell-based
MM.1S line = test: activity in MM.1S line; format: cell-based; settings: multiple myelome derived line

Compound: Cc1sc2c(c1C)C(c1ccc(Cl)cc1)=N[C@@H](CC(=O)NCCCCNC(=O)COc1cccc3c1C(=O)N(C1CCC(=O)NC1=O)C3=O)c1nnc(C)n1-2 (stereo partly shown) [dBET-1]
- activity against IKZF family, earlier report [1]: not previously observed

Compound: COc1cc(-c2cn(C)c(=O)c3cnccc23)cc(OC)c1CN(C)CC(=O)NCCOCCOCCNc1cccc2c1C(=O)N(C1CCC(=O)NC1=O)C2=O (stereo not shown) [dBRD9]
- change in BRD4 or BRD7 levels [2]: no significant change
- difference in levels of other proteins (99% of proteins) [2]: less than 0.30 fold
- anti-proliferative effect ([3]; EOL-1, MOLM-13, MV4;11, 7 days): potent anti-proliferative effect
- half-maximal anti-proliferative concentration ([3]; human AML lines): low nanomolar
- off target degradation activity on BRD7 (BRD7): not detectable
- off target degradation activity on BRD4 (BRD4): not detectable
- sensitivity with viral expression of exogenous wild type BRD9 (MOLM-13): shifted sensitivity, but to an intermediate degree
- activity against IKZF family [4]: retain activity
- activity in MM.1S (MM.1S line): dBRD9 sensitive
